Experiment [1] addresses T1, human CRF2α receptor (Homo sapiens, UniProt Q13324).
T1 construct: expressed in transfected cells; host or cells: TeloHEAC
T1 sequence (Q13324 1-411): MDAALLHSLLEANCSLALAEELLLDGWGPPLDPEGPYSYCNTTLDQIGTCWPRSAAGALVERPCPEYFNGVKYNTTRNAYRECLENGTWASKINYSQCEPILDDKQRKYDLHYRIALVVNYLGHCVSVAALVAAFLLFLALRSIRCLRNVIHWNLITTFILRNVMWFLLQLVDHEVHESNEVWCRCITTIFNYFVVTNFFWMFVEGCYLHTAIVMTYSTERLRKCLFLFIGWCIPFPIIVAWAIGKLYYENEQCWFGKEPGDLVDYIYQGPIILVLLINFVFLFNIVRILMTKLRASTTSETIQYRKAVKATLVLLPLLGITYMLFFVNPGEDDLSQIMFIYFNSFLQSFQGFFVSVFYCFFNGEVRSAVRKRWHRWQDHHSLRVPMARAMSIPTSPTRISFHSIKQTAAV
Nature of the experiment: cAMP agonism at human CRF2α receptor in TeloHEAC cells, FA modified peptides (Example 19.9). The experiment is classed as cell-based. The settings on record: 0% HSA, relative to urocortin 2. The method, then: Agonism of compounds for human corticotropin-releasing factor 2α (CRF2α receptor) was determined by a functional assay measuring cAMP modulation upon treatment of TeloHEAC cells stably expressing human CRF2α receptor.
Compounds were dissolved at 0.5 mM in 100% DMSO and serially diluted (1:2) in 100% DMSO for 16 dilutions. 20 nL of each dilution was then transferred to 384-well assay plate using an acoustic droplet ejection instrument. 5 μL of compound buffer (1×HBSS; 20 mM HEPES, 2 mM IBMX, 0% or 0.2% HSA) were then added to each well.
Prior to use, frozen cells were thawed quickly at 37° C. and washed (5 min at 900 rpm) with 20 mL cell buffer (1×HBSS; 20 mM HEPES). Cells were resuspended in cell buffer and adjusted to a cell density of 800.000 cells/ml.
5 μL cells (final dell density: 4000 cells/well) were dispensed in the compound-containing 384-well assay plate and incubated for 30 minutes 37° C.
The CAMP level in treated cells was determined using the Cisbio 62AM4PEC kit according to manufacturer's instruction. Finally, plates were incubated for 1 h at room temperature before measuring the fluorescence ratio between 665/620 nm.
The percent activity value (E %) was calculated by setting 100 nM of urocortin 2 (UCN2) as 100%. The in vitro potency of the compounds was quantified by determining the concentrations that caused 50% activation of maximal response (EC50) relative to urocortin 2.

The target of experiment [2] is T2, CRF1R receptor (Homo sapiens, UniProt P34998).
T2 construct: host or cells: CHO-K1 clone 2
T2 sequence (P34998 24-415): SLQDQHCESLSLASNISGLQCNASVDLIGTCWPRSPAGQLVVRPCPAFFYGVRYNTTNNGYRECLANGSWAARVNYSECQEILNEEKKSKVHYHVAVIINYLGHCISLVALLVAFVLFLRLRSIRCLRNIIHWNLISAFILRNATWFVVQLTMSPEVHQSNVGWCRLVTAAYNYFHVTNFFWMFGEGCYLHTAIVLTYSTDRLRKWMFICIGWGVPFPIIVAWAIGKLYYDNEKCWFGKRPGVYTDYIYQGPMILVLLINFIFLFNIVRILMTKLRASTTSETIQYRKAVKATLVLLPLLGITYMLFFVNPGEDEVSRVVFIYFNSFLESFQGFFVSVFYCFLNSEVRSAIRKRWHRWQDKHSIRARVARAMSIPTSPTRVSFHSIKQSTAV
The experiment in a line: cAMP activity at anti-target CRF1R, CHO-K1 cell line clone 2 (Example 19.10). Conditions: for Emax: 100% = Sauvagine at 100 nM; for CRF1/CRF2 ratio: ratio of CRF1 EC50 to CRF2 EC50. The experiment is classed as cell-based. The essentials:
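A CRF1R-overexpressing CHO-K1 line (clone 2) was grown in F12/10% FBS/G418 and frozen in aliquots before use. The cAMP assay followed the preceding procedure, with 100% activation defined by Sauvagine at 100 nM.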

Where [3] appears, read: 0% HSA, CRF1R CHO-K1 clone 2, read-out: EC50 [nM] 0% HSA.
Where [4] appears, read: Table 20 side-to-side comparison, read-out: CRF1 EC50.

Like-named read-outs stand apart in the source and are kept apart here. Starred links: 1 amine or outer side, 2 acyl side, 3 side chain; linkers in the order of their positions; H or OH if unused. Non-standard residues stand in square brackets, D forms with d. Residues, ends and D or L forms follow the SMILES beside them. Groups on a side chain read outwards from the residue. *: point of attachment. C16 diacid = O=C(O)CCCCCCCCCCCCCCC(=O)*; γGlu = O=C(O)[C@H](CCC(=O)[*:2])N[*:1]; Palmitoyl = CCCCCCCCCCCCCCCC(=O)*; AEEA = NCCOCCOCC(=O)O; Aib = CC(C)(N)C(=O)O

Turning to `CC[C@H](C)[C@H](N)C(=O)N[C@H](C(=O)N[C@@H](CC(C)C)C(=O)N[C@@H](CO)C(=O)N[C@@H](CC(C)C)C(=O)N[C@@H](CC(=O)O)C(=O)N[C@@H](C(=O)N1CCC[C@H]1C(=O)N[C@H](C(=O)NCC(=O)N[C@@H](CC(C)C)C(=O)N[C@@H](CCCCNC(=O)CC[C@H](NC(=O)CCCCCCCCCCCCCCC(=O)O)C(=O)O)C(=O)N[C@@H](CCC(N)=O)C(=O)N[C@H](C(=O)N[C@@H](CC(C)C)C(=O)N[C@@H](CC(C)C)C(=O)N[C@@H](CCCCN)C(=O)N[C@@H](CCC(N)=O)C(=O)N[C@@H](CCC(=O)O)C(=O)N[C@@H](CCCNC(=N)N)C(=O)N[C@@H](CCC(N)=O)C(=O)N[C@@H](CCCCN)C(=O)N[C@@H](CCCCN)C(=O)NC(C)(C)C(=O)N[C@@H](CCCNC(=N)N)C(=O)N[C@@H](CCC(N)=O)C(=O)N[C@@H](CCC(N)=O)C(=O)N[C@@H](C)C(=O)N[C@@H](CCC(=O)O)C(=O)N[C@H](C(=O)N[C@@H](CC(N)=O)C(=O)N[C@@H](CCCCN)C(=O)N[C@@H](CCCNC(=N)N)C(=O)N[C@H](C(=O)N[C@@H](CC(C)C)C(=O)N[C@@H](CCC(=O)O)C(=O)N[C@@H](CCCNC(=N)N)C(=O)N[C@H](C(N)=O)C(C)C)[C@@H](C)CC)[C@@H](C)O)[C@@H](C)CC)[C@@H](C)CC)C(C)C)C(C)C` [compound 195] (H-IVLSLD[dV]PIGLK([γGlu-C16 diacid])QILLKQERQKK[Aib]RQQAETNKRILERV-NH2), the results for the EC50 in experiment [1], in experiment [2] (setting [3]) and in experiment [2] (setting [4]) were 0.34 nM, more than 100 nM and more than 100 nM, respectively. Besides, the maximum response (Emax) – broadly, the greatest response seen or fitted, relative to the assay's reference – in experiment [2] (CRF1R CHO-K1 clone 2) was 17.1%. Further, the CRF1/CRF2 ratio in experiment [2] is recorded as more than 500.
For `CC[C@H](C)[C@H](N)C(=O)N[C@H](C(=O)N[C@@H](CC(C)C)C(=O)N[C@@H](CO)C(=O)N[C@@H](CC(C)C)C(=O)N[C@@H](CC(=O)O)C(=O)N[C@@H](C(=O)N1CCC[C@H]1C(=O)N[C@H](C(=O)NCC(=O)N[C@@H](CC(C)C)C(=O)N[C@@H](CCCCNC(=O)CC[C@H](NC(=O)CCCCCCCCCCCCCCC(=O)O)C(=O)O)C(=O)N[C@@H](CCC(N)=O)C(=O)N[C@H](C(=O)N[C@@H](CC(C)C)C(=O)N[C@@H](CC(C)C)C(=O)N[C@@H](CCCCN)C(=O)N[C@@H](CCC(N)=O)C(=O)N[C@@H](CCC(=O)O)C(=O)N[C@@H](CCCNC(=N)N)C(=O)N[C@@H](CCC(N)=O)C(=O)N[C@@H](CCCCN)C(=O)N[C@@H](CCCCN)C(=O)NC(C)(C)C(=O)N[C@@H](CCCNC(=N)N)C(=O)N[C@@H](CCC(=O)O)C(=O)N[C@@H](CCC(N)=O)C(=O)N[C@@H](C)C(=O)N[C@@H](CCC(=O)O)C(=O)N[C@@H](CCCCN)C(=O)N[C@@H](CC(N)=O)C(=O)N[C@@H](CCCCN)C(=O)N[C@@H](CCCNC(=N)N)C(=O)N[C@H](C(=O)N[C@@H](CC(C)C)C(=O)N[C@@H](CCC(=O)O)C(=O)N[C@@H](CCCNC(=N)N)C(=O)N[C@H](C(N)=O)C(C)C)[C@@H](C)CC)[C@@H](C)CC)[C@@H](C)CC)C(C)C)C(C)C` [compound 196] (H-IVLSLD[dV]PIGLK([γGlu-C16 diacid])QILLKQERQKK[Aib]REQAEKNKRILERV-NH2; N-terminus assumed), the EC50 (in general, the midpoint of the concentration-response curve) in experiment [1] is 1.08 nM; in experiment [2] (setting [3]) it was more than 100 nM; in experiment [2] (setting [4]), more than 100 nM. Moreover, in experiment [2] (CRF1R CHO-K1 clone 2), the maximum response (Emax) was determined as 16.9%. In experiment [2], the CRF1/CRF2 ratio is more than 500.
For `CC[C@H](C)[C@H](N)C(=O)N[C@H](C(=O)N[C@@H](CC(C)C)C(=O)N[C@@H](CO)C(=O)N[C@@H](CC(C)C)C(=O)N[C@@H](CC(=O)O)C(=O)N[C@@H](C(=O)N1CCC[C@H]1C(=O)N[C@H](C(=O)N[C@@H](CCCCN)C(=O)N[C@@H](CC(C)C)C(=O)N[C@@H](CCCCNC(=O)CC[C@H](NC(=O)CCCCCCCCCCCCCCC(=O)O)C(=O)O)C(=O)N[C@@H](CCC(N)=O)C(=O)N[C@H](C(=O)N[C@@H](CC(C)C)C(=O)N[C@@H](CC(C)C)C(=O)N[C@@H](CCCCN)C(=O)N[C@@H](CCC(N)=O)C(=O)N[C@@H](C)C(=O)N[C@@H](CCCNC(=N)N)C(=O)N[C@@H](CCC(N)=O)C(=O)N[C@@H](CCCCN)C(=O)NC(C)(C)C(=O)N[C@@H](CCC(N)=O)C(=O)N[C@@H](CCCNC(=N)N)C(=O)N[C@@H](C)C(=O)N[C@@H](CCC(N)=O)C(=O)N[C@@H](C)C(=O)N[C@@H](CCC(=O)O)C(=O)N[C@@H](CCCCN)C(=O)N[C@@H](CC(N)=O)C(=O)N[C@@H](CCCCN)C(=O)N[C@@H](CCCNC(=N)N)C(=O)N[C@H](C(=O)N[C@@H](CC(C)C)C(=O)N[C@@H](CCC(=O)O)C(=O)N[C@@H](CCCNC(=N)N)C(=O)N[C@H](C(N)=O)C(C)C)[C@@H](C)CC)[C@@H](C)CC)[C@@H](C)CC)C(C)C)C(C)C` [compound 197] (H-IVLSLD[dV]PIKLK([γGlu-C16 diacid])QILLKQARQK[Aib]QRAQAEKNKRILERV-NH2; N-terminus assumed), the EC50 was 2.27 nM in experiment [1], more than 100 nM in experiment [2] (setting [3]) and more than 100 nM in experiment [2] (setting [4]). The maximal effect (Emax) in experiment [2] (CRF1R CHO-K1 clone 2) is 24.4%. Further, in experiment [2], the CRF1/CRF2 ratio is given as more than 500.
`CCCCCCCCCCCCCCCC(=O)N[C@@H](CCC(=O)N[C@@H](CCC(=O)NCCOCCOCC(=O)NCCOCCOCC(=O)NCCCC[C@H](NC(=O)[C@H](CC(C)C)NC(=O)CNC(=O)[C@@H](NC(=O)[C@@H]1CCCN1C(=O)[C@H](NC(=O)[C@H](CC(=O)O)NC(=O)[C@H](CC(C)C)NC(=O)[C@H](CO)NC(=O)[C@H](CC(C)C)NC(=O)[C@@H](NC(=O)[C@@H](N)[C@@H](C)CC)C(C)C)C(C)C)[C@@H](C)CC)C(=O)N[C@@H](CCC(N)=O)C(=O)N[C@H](C(=O)N[C@@H](CC(C)C)C(=O)N[C@@H](CC(C)C)C(=O)N[C@@H](CCCCN)C(=O)N[C@@H](CCC(N)=O)C(=O)N[C@@H](CCC(=O)O)C(=O)N[C@@H](CCCNC(=N)N)C(=O)N[C@@H](CCC(N)=O)C(=O)N[C@@H](CCCCN)C(=O)N[C@@H](CCCCN)C(=O)NC(C)(C)C(=O)N[C@@H](CCCNC(=N)N)C(=O)N[C@@H](CCC(=O)O)C(=O)N[C@@H](CCC(N)=O)C(=O)N[C@@H](C)C(=O)N[C@@H](CCC(=O)O)C(=O)N[C@H](C(=O)N[C@@H](CC(N)=O)C(=O)N[C@@H](CCCCN)C(=O)N[C@@H](CCC(N)=O)C(=O)N[C@H](C(=O)N[C@@H](CC(C)C)C(=O)N[C@@H](C)C(=O)N[C@@H](CCC(N)=O)C(=O)N[C@H](C(N)=O)C(C)C)[C@@H](C)CC)[C@@H](C)O)[C@@H](C)CC)C(=O)O)C(=O)O` [compound 217] (H-IVLSLD[dV]PIGLK([AEEA-AEEA-γGlu-γGlu-Palmitoyl])QILLKQERQKK[Aib]REQAETNKQILAQV-NH2; N-terminus assumed) registered a concentration for a half-maximal effect (EC50) in experiment [1] of 0.16 nM.

Source of the values: patent US12679878B2, “CRF2 receptor agonists and their use in therapy” (SANOFI, priority 2020, dated 2026).
